{"source": "patent US20160297761A1", "about": "“NOVEL INHIBITORS OF GLUTAMINASE” (RHIZEN PHARMACEUTICALS SA, priority 2014, published 2016)", "molecular_target": "T1, L-glutaminase present in mice brain homogenate (Glutaminase(Brain)) (Mus musculus, UniProt D3Z7P3)", "T1 sequence (D3Z7P3 55-674)": "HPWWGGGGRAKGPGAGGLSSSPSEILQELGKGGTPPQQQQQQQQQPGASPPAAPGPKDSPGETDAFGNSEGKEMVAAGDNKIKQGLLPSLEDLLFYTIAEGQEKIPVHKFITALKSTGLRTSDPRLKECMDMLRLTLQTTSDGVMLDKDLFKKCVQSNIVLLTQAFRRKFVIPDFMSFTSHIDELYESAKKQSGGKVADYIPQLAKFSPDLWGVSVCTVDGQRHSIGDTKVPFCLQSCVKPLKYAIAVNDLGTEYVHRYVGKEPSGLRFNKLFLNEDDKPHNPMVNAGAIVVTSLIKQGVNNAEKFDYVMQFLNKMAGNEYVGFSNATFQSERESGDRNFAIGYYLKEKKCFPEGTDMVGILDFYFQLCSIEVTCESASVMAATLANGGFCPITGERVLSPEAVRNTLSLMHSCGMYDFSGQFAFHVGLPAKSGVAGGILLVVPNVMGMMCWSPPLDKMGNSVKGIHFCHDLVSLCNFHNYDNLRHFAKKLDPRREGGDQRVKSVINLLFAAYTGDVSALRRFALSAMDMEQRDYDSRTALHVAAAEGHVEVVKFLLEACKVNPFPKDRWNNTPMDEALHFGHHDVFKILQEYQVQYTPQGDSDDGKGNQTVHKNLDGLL", "assay": "Glutaminase enzyme activity using glutaminase enzyme from mice brain/kidney homogenate (Nessler's reagent, ammonia)", "assay_type": "biochemical", "conditions": "for inhibition at 0.1 µM: read-out: Glutaminase(Brain) activity % inhibition 0.1 μM; for inhibition at 1 µM: read-out: Glutaminase(Brain) activity % inhibition @1 μM", "description": "Assay 3: Determination of Glutaminase Enzyme Activity Using Glutaminase\nEnzyme from Mice Brain/Kidney\nStep 1: Preparation of Tissue Homogenates: Male Balb/c mice were administered 0.28 M ammonium chloride in drinking water for 7 days. The animals were sacrificed and brain/kidney organs collected on dry ice. […] The tissue was homogenized and supernatants were stored at −80° C. until the enzyme assay was performed.\nAim: Compounds were assessed for their ability to inhibit the enzymatic activity of L-glutaminase present in mice brain/kidney homogenate.\nProtocol: The assay was performed using a colorimetric method using Nessler's Reagent by quantifying the amount of ammonia formed as a by product during the enzymatic conversion of L-glutamine to glutamate. In the routine assay, 16 μl of tissue homogenate is added to 33 μl of Tris-Hcl phosphate buffer (pH 8) along with 1 μl of DMSO/test compound containing the desired final concentration and vortexed briefly. 50 μl of 20 mM L-glutamine Tris buffer is added to start the reaction and incubated for 15 minutes at 37° C. The ammonia formed is detected by adding 20 μl of reaction mixture to cold water in a 96 well plate followed by 20 μl of Nessler's reagent. The colour developed is measured at 450 nm. Data Analysis: Activity of the test compound is reported as % inhibition and the data is analyzed using Graphpad Prism (Graphpad software; San Diego Calif.) for IC50 determination.", "note": "Counter-ions that a name gives are not always drawn. Like-named read-outs stand apart in the source and are kept apart here."}
{"smiles": "O=C(Cc1cccc(OC(F)(F)F)c1)Nc1ccc(CCCCc2nnc(NC(=O)Cc3ccc(C4CCNCC4)cc3)s2)cn1", "note": "[Example-34, 2-(4-(Piperidin-4-yl)phenyl)-N-(5-(4-(6-(2-(3-(trifluoromethoxy)phenyl)acetamido)pyridin-3-yl)butyl)-1,3,4-thiadiazol-2-yl)acetamide hydrochloride]", "values": [{"measurement": "inhibition at 0.1 µM", "result": "< 25", "unit": "%"}, {"measurement": "inhibition at 1 µM", "result": "25 to 50", "unit": "%"}]}
{"smiles": "O=C(Cc1ccccn1)Nc1nnc(CC2CCC(Cc3nnc(NC(=O)Cc4ccccn4)s3)CC2)s1", "note": "(stereo not drawn) [Example-106, N,N′-(5, 5′-(Cyclohexane-1,4-diylbis(methylene))bis(1,3,4-thiadiazole-5,2-diyl))bis(2-(pyridin-2-yl)acetamide)]", "values": [{"measurement": "inhibition at 0.1 µM", "setting": "0.1 μM, mice brain homogenate", "result": "< 25", "unit": "%"}, {"measurement": "inhibition at 1 µM", "setting": "1 μM, mice brain homogenate", "result": "25 to 50", "unit": "%"}]}
{"smiles": "O=C(Cc1ccccc1Cl)Nc1ccc(CCCCc2nnc(NC(=O)Cc3cccnc3)s2)cn1", "note": "[Example-26, 2-(2-Chlorophenyl)-N-(5-(4-(5-(2-(pyridin-3-yl)acetamido)-1,3,4-thiadiazol-2-yl)butyl)pyridin-2-yl)acetamide]", "values": [{"measurement": "inhibition at 0.1 µM", "setting": "0.1 μM, mice brain homogenate", "result": "50 to 75", "unit": "%"}, {"measurement": "inhibition at 1 µM", "setting": "1 μM, mice brain homogenate", "result": "75 to 100", "unit": "%"}]}
{"smiles": "O=C(Cc1cccc(OC(F)(F)F)c1)Nc1ccc(CCCCc2nnc(NC(=O)Cc3ccccn3)s2)nc1", "note": "[Example-4, 2-(Pyridin-2-yl)-N-(5-(4-(5-(2-(3-(trifluoromethoxy)phenyl)acetamido)pyridin-2-yl)butyl)-1,3,4-thiadiazol-2-yl)acetamide]", "values": [{"measurement": "inhibition at 0.1 µM", "setting": "0.1 μM, mice brain homogenate", "result": "< 25", "unit": "%"}]}
{"smiles": "O=C(Cc1cccc(OC(F)(F)F)c1)Nc1ncc(CCCCc2nnc(NC(=O)Cc3ccccn3)s2)cn1", "note": "[Example-7, 2-(Pyridin-2-yl)-N-(5-(4-(2-(2-(3-(trifluoromethoxy)phenyl)acetamido)pyrimidin-5-yl)butyl)-1,3,4-thiadiazol-2-yl)acetamide]", "values": [{"measurement": "inhibition at 0.1 µM", "setting": "0.1 μM, mice brain homogenate", "result": "< 25", "unit": "%"}, {"measurement": "inhibition at 1 µM", "setting": "1 μM, mice brain homogenate", "result": "25 to 50", "unit": "%"}]}
{"smiles": "COc1ccccc1CC(=O)Nc1nnc(CCC#Cc2ccc(NC(=O)Cc3ccccc3Cl)nc2)s1", "note": "[Example 1, 2-(2-Chlorophenyl)-N-{5-[4-(5-(2-(2-methoxyphenyl)acetamido)-1,3,4-thiadiazol-2-yl)but-1-ynyl]pyridin-2-yl}acetamide]", "values": [{"measurement": "inhibition at 0.1 µM", "setting": "0.1 μM, mice brain homogenate", "result": "25 to 50", "unit": "%"}, {"measurement": "inhibition at 1 µM", "setting": "1 μM, mice brain homogenate", "result": "75 to 100", "unit": "%"}]}
{"smiles": "O=C(Cc1cccc(OC(F)(F)F)c1)Nc1ccc(CCCCc2nnc(NC(=O)Cc3cccnc3)s2)nc1", "note": "[Example-5, 2-(Pyridin-3-yl)-N-(5-(4-(5-(2-(3-(trifluoromethoxy)phenyl)acetamido)pyridin-2-yl)butyl)-1,3,4-thiadiazol-2-yl)acetamide]", "values": [{"measurement": "inhibition at 0.1 µM", "setting": "0.1 μM, mice brain homogenate", "result": "< 25", "unit": "%"}, {"measurement": "inhibition at 1 µM", "setting": "1 μM, mice brain homogenate", "result": "< 25", "unit": "%"}]}
{"smiles": "O=C(Cc1cccc(OC(F)(F)F)c1)Nc1ccc(CC2CC(c3nnc(NC(=O)Cc4ccccn4)s3)C2)nn1", "note": "(stereo not drawn) [Example-110, 2-(Pyridin-2-yl)-N-(5-(3-((6-(2-(3-(trifluoromethoxy)phenyl)acetamido)pyridazin-3-yl)methyl)cyclobutyl)-1,3,4-thiadiazol-2-yl)acetamide]", "values": [{"measurement": "inhibition at 0.1 µM", "result": "75 to 100", "unit": "%"}, {"measurement": "inhibition at 1 µM", "result": "75 to 100", "unit": "%"}]}
{"smiles": "O=C(Cc1cccnc1)Nc1ccc(CCCCc2nnc(NC(=O)Cc3ccccc3Cl)s2)cn1", "note": "[Example-12, 2-(2-Chlorophenyl)-N-(5-(4-(6-(2-(pyridin-3-yl)acetamido)pyridin-3-yl)butyl)-1,3,4-thiadiazol-2-yl) acetamide]", "values": [{"measurement": "inhibition at 0.1 µM", "setting": "0.1 μM, mice brain homogenate", "result": "75 to 100", "unit": "%"}, {"measurement": "inhibition at 1 µM", "setting": "1 μM, mice brain homogenate", "result": "75 to 100", "unit": "%"}]}
{"smiles": "O=C(Cc1cccc(OC(F)(F)F)c1)Nc1cnc(CCCCc2nnc(NC(=O)Cc3ccccn3)s2)cn1", "note": "[Example-6, 2-(Pyridin-2-yl)-N-(5-(4-(5-(2-(3-(trifluoromethoxy)phenyl)acetamido)pyrazin-2-yl)butyl)-1,3,4-thiadiazol-2-yl)acetamide]", "values": [{"measurement": "inhibition at 0.1 µM", "result": "< 25", "unit": "%"}, {"measurement": "inhibition at 1 µM", "result": "25 to 50", "unit": "%"}]}
{"smiles": "O=C(Cc1cccnc1)Nc1ccc(CCCCc2nnc(NC(=O)Cc3ccccc3F)s2)cn1", "note": "[Example-19, 2-(2-Fluorophenyl)-N-(5-(4-(6-(2-(pyridin-3-yl)acetamido)pyridin-3-yl)butyl)-1,3,4-thiadiazol-2-yl)acetamide]", "values": [{"measurement": "inhibition at 0.1 µM", "setting": "0.1 μM, mice brain homogenate", "result": "50 to 75", "unit": "%"}, {"measurement": "inhibition at 1 µM", "setting": "1 μM, mice brain homogenate", "result": "75 to 100", "unit": "%"}]}
{"smiles": "CS(=O)(=O)c1cccc(CC(=O)Nc2nnc(CCCCc3ccc(NC(=O)Cc4cccnc4)nc3)s2)c1", "note": "[Example-13, 2-(3-(Methylsulfonyl)phenyl)-N-(5-(4-(6-(2-(pyridin-3-yl)acetamido)pyridin-3-yl)butyl)-1,3,4-thiadiazol-2-yl)acetamide]", "values": [{"measurement": "inhibition at 0.1 µM", "setting": "0.1 μM, mice brain homogenate", "result": "75 to 100", "unit": "%"}, {"measurement": "inhibition at 1 µM", "setting": "1 μM, mice brain homogenate", "result": "75 to 100", "unit": "%"}]}
{"smiles": "COc1ccccc1CC(=O)Nc1nnc(CCCCc2ccc(NC(=O)Cc3ccccc3Cl)nc2)s1", "note": "[Example 2, 2-(2-Chlorophenyl)-N-{5-[4-(5-(2-(2-methoxyphenyl)acetamido)-1,3,4-thiadiazol-2-yl)butyl]pyridin-2-yl}acetamide]", "values": [{"measurement": "inhibition at 0.1 µM", "setting": "0.1 μM, mice brain homogenate", "result": "50 to 75", "unit": "%"}, {"measurement": "inhibition at 1 µM", "setting": "1 μM, mice brain homogenate", "result": "75 to 100", "unit": "%"}]}
{"smiles": "O=C(Cc1cccc(OC(F)(F)F)c1)Nc1ccc(CCCCc2nnc(NC(=O)Cn3nc(C(F)(F)F)cc3C(F)(F)F)s2)cn1", "note": "[Example-35, 2-(3,5-Bis(trifluoromethyl)-1H-pyrazol-1-yl)-N-(5-(4-(6-(2-(3-(trifluoromethoxy)phenyl)acetamido)pyridin-3-yl)butyl)-1,3,4-thiadiazol-2-yl)acetamide]", "values": [{"measurement": "inhibition at 0.1 µM", "setting": "0.1 μM, mice brain homogenate", "result": "< 25", "unit": "%"}, {"measurement": "inhibition at 1 µM", "setting": "1 μM, mice brain homogenate", "result": "< 25", "unit": "%"}]}
{"smiles": "CC(C)(C)OC(=O)N1CCC(c2ccc(CC(=O)Nc3nnc(CCCCc4ccc(NC(=O)Cc5cccc(OC(F)(F)F)c5)nc4)s3)cc2)CC1", "note": "[Example-33, Tert-butyl 4-(4-(2-oxo-2-(5-(4-(6-(2-(3-(trifluoromethoxy)phenyl)acetamido)pyridin-3-yl)butyl)-1,3,4-thiadiazol-2-ylamino)ethyl)phenyl)piperidine-1-carboxylate]", "values": [{"measurement": "inhibition at 0.1 µM", "setting": "0.1 μM, mice brain homogenate", "result": "< 25", "unit": "%"}, {"measurement": "inhibition at 1 µM", "setting": "1 μM, mice brain homogenate", "result": "25 to 50", "unit": "%"}]}
{"smiles": "CS(=O)(=O)c1ccc(CC(=O)Nc2nnc(CCCCc3ccc(NC(=O)Cc4cccnc4)nc3)s2)cc1", "note": "[Example-14, 2-(4-(Methylsulfonyl)phenyl)-N-(5-(4-(6-(2-(pyridin-3-yl)acetamido)pyridin-3-yl)butyl)-1,3,4-thiadiazol-2-yl)acetamide]", "values": [{"measurement": "inhibition at 0.1 µM", "setting": "0.1 μM, mice brain homogenate", "result": "75 to 100", "unit": "%"}, {"measurement": "inhibition at 1 µM", "setting": "1 μM, mice brain homogenate", "result": "75 to 100", "unit": "%"}]}
{"smiles": "CS(=O)(=O)Nc1cccc(CC(=O)Nc2nnc(CCCCc3ccc(NC(=O)Cc4cccc(OC(F)(F)F)c4)nc3F)s2)c1", "note": "[Example-39, N-(6-Fluoro-5-(4-(5-(2-(3-(methylsulfonamido)phenyl)acetamido)-1,3,4-thiadiazol-2-yl)butyl)pyridin-2-yl)-2-(3-(trifluoromethoxy)phenyl)acetamide]", "values": [{"measurement": "inhibition at 0.1 µM", "setting": "0.1 μM, mice brain homogenate", "result": "25 to 50", "unit": "%"}, {"measurement": "inhibition at 1 µM", "setting": "1 μM, mice brain homogenate", "result": "75 to 100", "unit": "%"}]}
{"smiles": "O=C(Cc1cccnc1)Nc1ccc(CCCCc2nnc(NC(=O)Cc3cccnc3)s2)cn1", "note": "[Example-15, 2-(Pyridin-3-yl)-N-(5-(4-(5-(2-(pyridin-3-yl)acetamido)-1,3,4-thiadiazol-2-yl)butyl)pyridin-2-yl)acetamide]", "values": [{"measurement": "inhibition at 0.1 µM", "setting": "0.1 μM, mice brain homogenate", "result": "50 to 75", "unit": "%"}, {"measurement": "inhibition at 1 µM", "setting": "1 μM, mice brain homogenate", "result": "75 to 100", "unit": "%"}]}
{"smiles": "O=C(Cc1ccccc1Cl)Nc1ccc(CCCCc2nnc(NC(=O)Cc3ccccn3)s2)cn1", "note": "[Example-25, 2-(2-Chlorophenyl)-N-(5-(4-(5-(2-(pyridin-2-yl)acetamido)-1,3,4-thiadiazol-2-yl)butyl)pyridin-2-yl)acetamide]", "values": [{"measurement": "inhibition at 0.1 µM", "setting": "0.1 μM, mice brain homogenate", "result": "< 25", "unit": "%"}, {"measurement": "inhibition at 1 µM", "setting": "1 μM, mice brain homogenate", "result": "50 to 75", "unit": "%"}]}
{"smiles": "O=C(Cc1cccc(OC(F)(F)F)c1)Nc1ccc(CCCCc2nnc(NC(=O)Cc3cccc(C4CCNCC4)c3)s2)cn1", "note": "[Example-36, 2-(3-(Piperidin-4-yl)phenyl)-N-(5-(4-(6-(2-(3-(trifluoromethoxy)phenyl)acetamido)pyridin-3-yl)butyl)-1,3,4-thiadiazol-2-yl)acetamide hydrochloride]", "values": [{"measurement": "inhibition at 0.1 µM", "result": "25 to 50", "unit": "%"}, {"measurement": "inhibition at 1 µM", "result": "25 to 50", "unit": "%"}]}
